Assay results from patent US20250066370A1, “BICYCLIC TRIAZINE DERIVATIVES FOR THE TREATMENT OF CANCER” (DEUTSCHES KREBSFORSCHUNGSZENTRUM, priority 2022, published 2025).

What was measured:
[1] = tested on: CAL-120, human breast adenocarcinoma cells; test: Proliferation assay CAL-120 (crystal violet); type: cell-based; conditions: 96 h, CAL-120 parental cells, 4 days, median, read-out: Prolif-CAL-120, IC50 - [mol/l] (median)
Method: Human tumour cells were originally obtained from the American Type Culture Collection (ATCC), or from the Deutsche Sammlung von Mikroorganismen und Zellkulturen (DSMZ, German Collection of Microorganisms and Cell Cultures). Cultivated tumour cells (CAL-120, human breast adenocarcinoma cells, DSMZ ACC-459; MDA-MB-231, human breast cancer cells, ATCC HTB-26) were plated at a density of 4,000 cells/well in a 96-well multitier plate in 200 microL of their respective growth medium supplemented 10% fetal calf serum. After 24 hours, the cells of one plate (zero-point plate) were stained with crystal violet (see below), while the medium of the other plates was supplemented with the test substances in various concentrations (0 micromol/L, as well as in the range of 0.01-10 micromol/L; the final concentration of the solvent dimethyl sulfoxide was adjusted to 0.1%) using a Tecan HP D300 Digital Dispenser. The cells were incubated for 4 days in the presence of test substances. Cell proliferation was determined by staining the cells with crystal violet: the cells were fixed by adding 20 microL/measuring point of an 11% glutaric aldehyde solution for 15 minutes at room temperature. After three washing cycles of the fixed cells with water, the plates were dried at room temperature. The cells were stained by adding 100 microL/measuring point of a 0.1% crystal violet solution (pH 3.0). After three washing cycles of the stained cells with water, the plates were dried at room temperature. The dye was dissolved by adding 100 microL/measuring point of a 10% acetic acid solution. The extinction was determined by photometry at a wavelength of 595 nm. The change of cell number, in percent, was calculated by normalization of the measured values to the extinction values of the zero-point plate (=0%) and the extinction of the untreated (0 μM) cells (=100%). The IC50 values (inhibitory concentration at 50% of maximal effect) were determined by means of a 4 parameter fit.

CDK12/CyclinK = CDK12/CyclinK (Homo sapiens (Human), UniProt Q9NYV4); test: CDK12/CycK high ATP kinase assay (TR-FRET); type: biochemical; conditions: for IC50: 2 mM ATP (high ATP), median, read-out: CDK12/CyclinK, 2 mM ATP (high ATP), IC50 - [mol/l] (median); for (IC50 CDK12 high ATP) to (Degradation DC50 CDK12) ratio: IC50 CDK12 at 2 mM ATP divided by CDK12 degradation DC50 (IF, CAL-120)
CDK12/CyclinK, sequence (Q9NYV4 other isoform, or with tags, fused parts or gaps): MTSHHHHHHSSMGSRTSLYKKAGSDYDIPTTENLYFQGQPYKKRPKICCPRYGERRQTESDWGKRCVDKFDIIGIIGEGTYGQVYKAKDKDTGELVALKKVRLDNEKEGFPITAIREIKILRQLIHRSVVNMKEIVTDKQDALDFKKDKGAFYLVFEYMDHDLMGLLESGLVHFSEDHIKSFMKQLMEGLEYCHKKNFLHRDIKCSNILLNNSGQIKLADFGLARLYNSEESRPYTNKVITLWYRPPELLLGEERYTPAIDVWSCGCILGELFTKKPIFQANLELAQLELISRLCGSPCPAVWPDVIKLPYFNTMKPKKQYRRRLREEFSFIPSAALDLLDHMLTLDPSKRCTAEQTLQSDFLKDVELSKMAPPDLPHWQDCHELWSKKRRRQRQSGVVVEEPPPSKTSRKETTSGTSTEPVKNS
CDK12/CyclinK, sequence (O75909 other isoform, or with tags, fused parts or gaps partner): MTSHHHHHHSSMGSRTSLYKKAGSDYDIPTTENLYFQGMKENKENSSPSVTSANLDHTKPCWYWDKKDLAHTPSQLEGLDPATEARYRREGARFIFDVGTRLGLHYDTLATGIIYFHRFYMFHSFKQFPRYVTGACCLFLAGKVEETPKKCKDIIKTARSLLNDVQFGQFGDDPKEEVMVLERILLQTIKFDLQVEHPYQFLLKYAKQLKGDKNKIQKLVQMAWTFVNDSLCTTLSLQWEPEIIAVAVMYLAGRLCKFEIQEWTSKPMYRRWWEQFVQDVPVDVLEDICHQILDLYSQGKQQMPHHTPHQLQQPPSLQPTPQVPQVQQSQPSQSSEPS
Method: In the context of the present invention, the term “IC50 CDK12 hATP” refers to the IC50 values obtained according to the assay described in this section (2.2) herein below, i.e. the IC50 values for the inhibition of CDK12 at high (2 mM) ATP.
CDK12/CycK-inhibitory activity of compounds of the present invention at 2 millimol/L adenosine-tri-phosphate (ATP) was quantified employing the TR-FRET (TR-FRET=Time Resolved Fluorescence Energy Transfer) based CDK12/CycK activity inhibition assay as described in the following paragraphs.
A complex of human recombinant CDK12 and human recombinant CycK (both N-terminally His-tagged, expression and purification as described above) was used as enzyme. As substrate for the kinase reaction biotinylated peptide biotin-Ahx-KFELLPTPPLSPSRRSGL (C-terminus in amid form) was used which can be purchased e.g. form the company Biosyntan (Berlin-Buch, Germany).
For the assay 50 nanoL of a 100 fold concentrated solution of the test compound in DMSO was pipetted into either a black low volume 384 well microtiter plate or a black 1536 well microtiter plate (both Greiner Bio-One, Frickenhausen, Germany), 2 microL of a solution of CDK12/CycK in aqueous assay buffer [25 millimol/L HEPES pH 7.5, 20 millimol/L MgCl2, 5 millimol/L β-glycerophosphate, 2 millimol/L EGTA, 1.0 millimol/L dithiothreitol, 0.01% (v/v) Nonidet-P40 (Sigma), 0.01% (w/v) bovine serum albumin] were added and the mixture was incubated for 15 min at 22° C. to allow pre-binding of the test compounds to the enzyme before the start of the kinase reaction. Then the kinase reaction was started by the addition of 3 microL of a solution ATP (3.33 millimol/L=>final conc. in the 5 microL assay volume is 2 millimol/L) and substrate (1.67 micromol/L=>final conc. in the 5 microL assay volume is 1 micromol/L) in assay buffer and the resulting mixture was incubated for a reaction time of 60 min at 22° C. The concentration of CDK12/CycK was adjusted depending of the activity of the enzyme lot and was chosen appropriate to have the assay in the linear range, typical concentrations were about 0.75 nanomol/L. The reaction was stopped by the addition of 3 microL of a solution of TR-FRET detection reagents (125 nanomol/L streptavidine-XL665 [Cisbio Bioassays, Codolet, France] and 0.67 nanomol/L anti-Phospho-c-Myc (Ser 62) (E1J4K)-antibody from Cell Signalling [#13748] and 2 nanomol/L LANCE EU-W1024 labeled anti-rabbit IgG antibody [Perkin-Elmer, product no. 0083]) in an aqueous EDTA-solution (133 millimol/L EDTA, 0.27% (w/v) bovine serum albumin in 66.7 millimol/L HEPES pH 7.5).
The resulting mixture was incubated 1 h at 22° C. to allow the formation of complex between the phosphorylated biotinylated peptide and the detection reagents. Subsequently the amount of phosphorylated substrate was evaluated by measurement of the resonance energy transfer from the Eu-chelate to the streptavidine-XL. Therefore, the fluorescence emissions at 620 nm and 665 nm after excitation at 350 nm was measured in a TR-FRET reader, e.g. a Pherastar FS (BMG Labtechnologies, Offenburg, Germany) or a Viewlux (Perkin-Elmer). The ratio of the emissions at 665 nm and at […] was taken as the measure for the amount of phosphorylated substrate. The data were normalised (enzyme reaction without inhibitor=0% inhibition, all other assay components but no enzyme=100% inhibition).

[2] = tested on: BRCA1 mRNA expression in MDA-MB-231 cells; test: qRT-PCR assay: inhibition of BRCA1 mRNA expression in MDA-MB-231 cells; type: cell-based; conditions: Homo sapiens, 24 h exposure, BRCA1 normalised to GAPDH, median, read-out: RTqPCR-MDA-MB-231, IC50 [mol/l], BRCA1 (median)
Method: 3. qRT-PCR Assay: BRCA1, ATR, MCL1 in MDA-MB-231, CAL-120
Tissue cultured human MDA-MB-231 human breast cancer cells were plated in 500 microL per well at 200,000 cells/well in a 24 well microtiter plate. After 24 h, the cells were exposed continuously for 24 h to test substances (substances were added with Tecan HP D300 Dispenser). RNA was prepared using Qiagen RNeasy MiniKit (#74106), RNA was quantified using a NanoDrop Equipment, and 600 nano grams of RNA was converted to cDNA using a SuperScript VILO kit (Thermofisher #11755050) followed by qPCR amplification. BRCA1 and ATR gene expression was measured by RT-qPCR and normalised to GAPDH housekeeping gene expression. qPCR primer sets have been purchased from Thermo Fisher Scientific/Applied Biosystems: BRCA1, #Hs 01556193; ATR. #Hs 00992123: GAPDH. #Hs 03929097.

Row | SMILES | IC50 [1] [nM] | IC50 (CDK12/CyclinK) [nM] | (IC50 CDK12 high ATP) to (Degradation DC50 CDK12) ratio (CDK12/CyclinK) | IC50 [2] [nM]
1 | Cc1ccc(-c2nnc(CNc3nc(N4CCOCC4)nc4c(C(F)(F)F)cnn34)[nH]2)cn1 [Example 22, N-{[5-(6-methylpyridin-3-yl)-4H-1,2,4-triazol-3-yl]methyl}-2-(morpholin-4-yl)-8-(trifluoromethyl)pyrazolo[1,5-a][1,3,5]triazin-4-amine] | 333 | 489 | <0.49 | –
2 | COc1ccc(-c2cnc(CNc3nc(N4CCOCC4)nc4c(C(F)(F)F)cnn34)[nH]2)cn1 [Example 21, N-{[5-(6-methoxypyridin-3-yl)-1H-imidazol-2-yl]methyl}-2-(morpholin-4-yl)-8-(trifluoromethyl)pyrazolo[1,5-a][1,3,5]triazin-4-amine] | 99 | – | – | 98.8
3 | FC(F)(F)Oc1ccc(-c2cnc(CNc3nc(N4CCOCC4)nn4c(C(F)(F)F)cnc34)[nH]2)cc1 [Example 8, 2-(morpholin-4-yl)-N-({5-[4-(trifluoromethoxy)phenyl]-1H-imidazol-2-yl}methyl)-7-(trifluoromethyl)imidazo[2,1-f][1,2,4]triazin-4-amine] | 90.7 | 8.34 | 9.34E−03 | 38.2
4 | FC(F)(F)c1ccc(-c2nnc(CNc3nc(N4CCOCC4)nn4c(C(F)(F)F)cnc34)[nH]2)cn1 [Example 20, 2-(morpholin-4-yl)-7-(trifluoromethyl)-N-({5-[6-(trifluoromethyl)pyridin-3-yl]-4H-1,2,4-triazol-3-yl}methyl)imidazo[2,1-f][1,2,4]triazin-4-amine] | 83.5 | 11.9 | <0.01 | 53.8
5 | FC(F)(F)Oc1ccc(-c2nnc(CNc3nc(N4CCOCC4)nc4c(C(F)(F)F)cnn34)[nH]2)cc1 [Example 5, 2-(morpholin-4-yl)-N-({5-[4-(trifluoromethoxy)phenyl]-4H-1,2,4-triazol-3-yl}methyl)-8-(trifluoromethyl)pyrazolo[1,5-a][1,3,5]triazin-4-amine] | 319 | 262 | 0.26 | 109
6 | COc1ccc(-c2nnc(CNc3nc(N4CCOCC4)nc4c(C(F)(F)F)cnn34)[nH]2)cn1 [Example 15, N-{[5-(6-methoxypyridin-3-yl)-4H-1,2,4-triazol-3-yl]methyl}-2-(morpholin-4-yl)-8-(trifluoromethyl)pyrazolo[1,5-a][1,3,5]triazin-4-amine] | 355 | 526 | <0.53 | –
7 | COc1ccc(-c2nnc(CNc3nc(N4CCOCC4)nn4c(C(F)(F)F)cnc34)[nH]2)cn1 [Example 18, N-{[5-(6-methoxypyridin-3-yl)-4H-1,2,4-triazol-3-yl]methyl}-2-(morpholin-4-yl)-7-(trifluoromethyl)imidazo[2,1-f][1,2,4]triazin-4-amine] | 104 | – | – | 71.5
8 | FC(F)(F)c1ccc(-c2cnc(CNc3nc(N4CCOCC4)nc4c(C(F)(F)F)cnn34)[nH]2)cn1 [Example 24, 2-(morpholin-4-yl)-8-(trifluoromethyl)-N-({5-[6-(trifluoromethyl)pyridin-3-yl]-1H-imidazol-2-yl}methyl)pyrazolo[1,5-a][1,3,5]triazin-4-amine] | 30.2 | – | – | 29.5
9 | FC(F)(F)c1ccc(-c2cnc(CNc3nc(N4CCOCC4)nc4c(Br)cnn34)[nH]2)cc1 [Example 3, 8-bromo-2-(morpholin-4-yl)-N-({5-[4-(trifluoromethyl)phenyl]-1H-imidazol-2-yl}methyl)pyrazolo[1,5-a][1,3,5]triazin-4-amine] | 173 | 267 | <0.09 | –
10 | FC(F)(F)c1ccc(-c2nnc(CNc3nc(N4CCOCC4)nn4c(C(F)(F)F)cnc34)[nH]2)cc1 [Example 11, 2-(morpholin-4-yl)-7-(trifluoromethyl)-N-({5-[4-(trifluoromethyl)phenyl]-4H-1,2,4-triazol-3-yl}methyl)imidazo[2,1-f][1,2,4]triazin-4-amine] | 419 | 32.3 | 0.04 | –
11 | FC(F)(F)c1ccc(-c2cnc(CNc3nc(N4CCOCC4)nn4c(C(F)(F)F)cnc34)[nH]2)cc1 [Example 7, 2-(morpholin-4-yl)-7-(trifluoromethyl)-N-({5-[4-(trifluoromethyl)phenyl]-1H-imidazol-2-yl}methyl)imidazo[2,1-f][1,2,4]triazin-4-amine] | 103 | 26.3 | 0.04 | –
12 | FC(F)(F)c1ccc(-c2nnc(CNc3nc(N4CCOCC4)nc4c(C(F)(F)F)cnn34)[nH]2)cc1 [Example 6, 2-(morpholin-4-yl)-8-(trifluoromethyl)-N-({5-[4-(trifluoromethyl)phenyl]-4H-1,2,4-triazol-3-yl}methyl)pyrazolo[1,5-a][1,3,5]triazin-4-amine] | 224 | 736 | 0.74 | –
13 | FC(F)(F)Oc1ccc(-c2nnc(CNc3nc(N4CCOCC4)nn4c(C(F)(F)F)cnc34)[nH]2)cc1 [Example 14, 2-(morpholin-4-yl)-N-({5-[4-(trifluoromethoxy)phenyl]-4H-1,2,4-triazol-3-yl}methyl)-7-(trifluoromethyl)imidazo[2,1-f][1,2,4]triazin-4-amine] | 248 | – | – | –
